Data on nine compounds can be found in PubChem BioAssay (NCI).

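Briefly, cells in 96-well plates were exposed to five compound concentrations for 48 h, and endpoints were estimated by linear interpolation. Abbreviation: GI50, concentration required for 50% inhibition of growth. TGI: concentration producing complete growth inhibition.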

Test systems include PC-3 prostate; SF-295 CNS; CCRF-CEM leukemia; HOP-92 NSCLC; NCI-H23 lung; SW-620 colon; A549 NSCLC; UACC-257 melanoma.
What all share (assay): inhibition of tumour cell growth, NCI panel, 48 h

In the case of `ClC(Cl)c1nc(-c2cccnc2)n2nc(-c3ccccc3)cc2n1`, the GI50 in the test on PC-3 prostate is 1.71 µM; in the test with SF-295 CNS it was 2.27 µM; in the test on CCRF-CEM leukemia it was 2.32 µM; with HOP-92 NSCLC it was 2.16 µM; in the test with NCI-H23 lung, 0.62 µM; in the test with SW-620 colon, 0.666 µM. The GI50 in the test on A549 NSCLC is 1.3 µM; in the test on UACC-257 melanoma, 2.39 µM. Besides, the TGI with PC-3 prostate is 4.68 µM; in the test on SF-295 CNS it was 6.52 µM; with CCRF-CEM leukemia, greater than 100 µM; in the test on HOP-92 NSCLC, 5.29 µM; with NCI-H23 lung, 2.9 µM; in the test with SW-620 colon, 5.3 µM. Also, the TGI was found to be 9 µM with A549 NSCLC and 6.08 µM with UACC-257 melanoma.

Regarding `O=[N+]([O-])c1ccc(N/N=C/c2c(O)ccc3ccccc23)nc1`, the GI50 is 48.7 µM in the test with PC-3 prostate; 4.9 µM in the test with SF-295 CNS; 0.918 µM with CCRF-CEM leukemia; 7.94 µM in the test with HOP-92 NSCLC; greater than 100 µM with NCI-H23 lung; 3.61 µM with SW-620 colon. Further, the GI50 in the test on A549 NSCLC was 27.7 µM; with UACC-257 melanoma it was 8.75 µM. Further, the TGI is greater than 100 µM with PC-3 prostate; greater than 100 µM in the test on SF-295 CNS; greater than 100 µM in the test with CCRF-CEM leukemia; 99.4 µM with HOP-92 NSCLC; greater than 100 µM with NCI-H23 lung; greater than 100 µM in the test on SW-620 colon. For the same compound, the TGI in the test with A549 NSCLC and in the test on UACC-257 melanoma was greater than 100 µM in each case.

For the compound `O=S(=O)(NCC1CCC(CNc2ccc(Cl)cc2)CC1)c1ccc(-c2ccccc2)cc1` (centres undefined), the GI50 was 40.9 µM with PC-3 prostate; greater than 50 µM with SF-295 CNS; greater than 50 µM with CCRF-CEM leukemia; 45.6 µM with HOP-92 NSCLC; 20.6 µM in the test on NCI-H23 lung; greater than 50 µM in the test with SW-620 colon. Besides, the GI50 in the test on A549 NSCLC is 9.21 µM; with UACC-257 melanoma, greater than 50 µM. The TGI with PC-3 prostate, with SF-295 CNS, in the test on CCRF-CEM leukemia, in the test with HOP-92 NSCLC, with NCI-H23 lung and with SW-620 colon was greater than 50 µM throughout. Besides, the TGI with A549 NSCLC and with UACC-257 melanoma was greater than 50 µM in each case.

Turning to `OCC1OC(n2ccc3c(NO)ncnc32)C(O)C1O` (centres undefined), the GI50 in the test on PC-3 prostate is 0.239 µM; with SF-295 CNS it was 0.144 µM; in the test on CCRF-CEM leukemia, 0.159 µM; with HOP-92 NSCLC, 0.154 µM; with NCI-H23 lung it was 0.214 µM; with SW-620 colon, 0.0895 µM. Further, the values for the GI50 in the test on A549 NSCLC and in the test with UACC-257 melanoma were 0.087 µM and 0.232 µM, respectively. In addition, the TGI worked out at 1.14 µM in the test with PC-3 prostate; 0.599 µM in the test on SF-295 CNS; 0.692 µM in the test with CCRF-CEM leukemia; 0.608 µM in the test with HOP-92 NSCLC; 1.17 µM with NCI-H23 lung; 3.23 µM in the test with SW-620 colon. For the same compound, the TGI in the test on A549 NSCLC amounted to 3.58 µM; in the test with UACC-257 melanoma it was 0.866 µM.

Regarding `N#Cc1cnc2cc(OC[C@@H](O)CO)c(NC(=O)CC3CSSC3)cc2c1Nc1ccc(OCc2cccc(F)c2)c(Cl)c1`, the GI50 is 0.0888 µM with PC-3 prostate; 0.88 µM with SF-295 CNS; 0.0603 µM in the test on CCRF-CEM leukemia; 0.919 µM with HOP-92 NSCLC; 0.614 µM in the test with NCI-H23 lung; 0.216 µM with SW-620 colon. The GI50 in the test with A549 NSCLC was 0.842 µM; in the test with UACC-257 melanoma, 0.195 µM. For the same compound, the TGI with PC-3 prostate was 0.198 µM; in the test on SF-295 CNS it was 1.78 µM; in the test with CCRF-CEM leukemia it was 0.16 µM; with HOP-92 NSCLC, 2.06 µM; in the test on NCI-H23 lung, 1.51 µM; with SW-620 colon, 0.87 µM. For the same compound, the TGI was found to be 1.72 µM in the test with A549 NSCLC and 0.829 µM in the test with UACC-257 melanoma.

`COc1ccccc1NC(=O)n1nc(N)c2ccccc21`: the GI50 was 64.1 µM in the test with PC-3 prostate; 52.1 µM in the test with SF-295 CNS; greater than 100 µM in the test with CCRF-CEM leukemia; 22.7 µM with HOP-92 NSCLC; greater than 100 µM with NCI-H23 lung; greater than 100 µM with SW-620 colon. The GI50 in the test with A549 NSCLC is greater than 86.9 µM; with UACC-257 melanoma it was greater than 100 µM. Besides, the TGI in the test on PC-3 prostate was greater than 100 µM; in the test with SF-295 CNS, greater than 100 µM; in the test on CCRF-CEM leukemia, greater than 100 µM; in the test with HOP-92 NSCLC it was 76.5 µM; in the test with NCI-H23 lung it was greater than 100 µM; with SW-620 colon it was greater than 100 µM. In addition, the TGI in the test with A549 NSCLC and in the test with UACC-257 melanoma was greater than 100 µM each time.

For `NC(=O)c1cc(Br)cc(C2CCCCC2)c1O`, the GI50 in the test on PC-3 prostate was 12.8 µM; in the test with SF-295 CNS, 11.3 µM; with CCRF-CEM leukemia, 15.1 µM; in the test on HOP-92 NSCLC, 12.2 µM; in the test on NCI-H23 lung it was 15.3 µM; in the test with SW-620 colon, 15.5 µM. The results for the GI50 with A549 NSCLC and in the test with UACC-257 melanoma were 13.4 µM and 16.3 µM, respectively. For the same compound, the TGI turned out to be 26.4 µM in the test with PC-3 prostate; 24.5 µM in the test with SF-295 CNS; 39.8 µM in the test with CCRF-CEM leukemia; 25.7 µM in the test on HOP-92 NSCLC; 30.8 µM in the test with NCI-H23 lung; 29.8 µM with SW-620 colon. The TGI with A549 NSCLC came out at 27.1 µM; with UACC-257 melanoma it was 30.1 µM.

As for `CCOC(=O)C(=Cc1ccccc1[N+](=O)[O-])C(=O)OCC`, the GI50 with PC-3 prostate was 6.69 µM; in the test with SF-295 CNS it was 5.38 µM; in the test on CCRF-CEM leukemia, 3.13 µM; with HOP-92 NSCLC, 3.67 µM; in the test on NCI-H23 lung, 3.35 µM; in the test on SW-620 colon, 2.12 µM. The values for the GI50 in the test with A549 NSCLC and in the test with UACC-257 melanoma were 4.05 µM and 3.25 µM, respectively. Further, the TGI with PC-3 prostate was 34.7 µM; in the test on SF-295 CNS, 20.1 µM; in the test on CCRF-CEM leukemia it was 20.6 µM; with HOP-92 NSCLC it was 8.8 µM; in the test on NCI-H23 lung it was 13.9 µM; in the test with SW-620 colon, 4.85 µM. The TGI was 17.5 µM in the test on A549 NSCLC and 14.3 µM with UACC-257 melanoma.

As to `Clc1ccc2[nH]cc(-c3nc(-c4c[nH]c5ncccc45)cs3)c2c1`, the GI50 with PC-3 prostate is 3.5 µM; in the test on SF-295 CNS, 2.74 µM; with CCRF-CEM leukemia, 4.14 µM; in the test on HOP-92 NSCLC it was 2.24 µM; in the test with NCI-H23 lung it was 3.34 µM; with SW-620 colon it was 3.08 µM. Further, the GI50 with A549 NSCLC is 2.94 µM; in the test on UACC-257 melanoma, 2.56 µM. For the same compound, the TGI with PC-3 prostate is 28 µM; in the test with SF-295 CNS it was 7.66 µM; in the test with CCRF-CEM leukemia, greater than 100 µM; in the test on HOP-92 NSCLC, 8.6 µM; in the test with NCI-H23 lung, 20.5 µM; in the test on SW-620 colon, 11.6 µM. Also, the figures for the TGI in the test on A549 NSCLC and in the test on UACC-257 melanoma were 62.4 µM and 6.78 µM, respectively.
